We go through 25 compounds from US8455516B2, “HIV-1 fusion inhibitors and methods” (Touro University, priority 2010, dated 2013).

Like-named read-outs stand apart in the source and are kept apart here.

Data set [1] can be described thus: cytotoxicity, luciferase expression-based test. Conditions: human, TZM-bl cells.
The test system of data set [2] is Pseudovirus HIV-1 BAL (CCR5-tropic strain).
Data set [3] shares this test system. Nature of the data set: microbe, parasite or virus in culture. Conditions: MAGI.
A further data set deals with HIV-1 Ba-L. Kind of data set: HIV-1 viral infectivity inhibition, Ba-L. In kind it is cell-based. The settings on record: Human immunodeficiency virus 1, BAL. On the procedure:
(§1) The ability of the compounds to inhibit HIV-1 infectivity was assessed using standard assays as reported in the literature. See: 1) Desmezieres, E.; Gupta, N.; Vassell, R.; He, Y.; Peden, K.; Sirota, L.; Yang, Z.; Wingfield, P.; Weiss, C. D. J Virol 2005, 79, 4774, and 2) Lackman-Smith, C.; Osterling, C.; Luckenbaugh, K.; Mankowski, M.; Snyder, B.; Lewis, G.; Paull, J.; Profy, A.; Ptak, R. G.; Buckheit, R. W., Jr.; Watson, K. M.; Cummins, J. E.; Sanders-Beer, B. E. Antimicrob Agents Chemother 2008.

The nature of a further data set: in vitro. The settings on record: human.
The next data set concerns HIV-1 IIIB. Kind of data set: HIV-1 viral infectivity inhibition, IIIB. In kind it is cell-based. Conditions: Human immunodeficiency virus 1, IIIB. On the procedure: as §1
In the next data set the test system is MAGI cells. The settings on record: human.
Another data set has as its system TZM-bl cells. Nature of the data set: cytotoxicity, luciferase expression-based test. The settings on record: toxicity to TZM-bl cells, 24 hour exposure.
For another data set, the system named is HIV-1 HXB2. Kind of data set: HIV-1 viral infectivity inhibition, HXB2. In kind it is cell-based. Conditions: Human immunodeficiency virus 1, HXB2. Here is the method: as §1
Data set [4] has as its target T1, gp41 hydrophobic pocket (receptor Fe(env2.0)3) (Human immunodeficiency virus type 1 group M subtype B, UniProt P04578).
T1 construct: utilizing a receptor Fe(env2.0)3 selective for the hydrophobic pocket
Kind of data set: competitive inhibition fluorescence binding assay for the gp41 hydrophobic pocket. Conditions: binding constant, hydrophobic pocket of gp41. The arrangement: species or system HIV-1. On the procedure: Compounds were validated for binding activity with a biochemical assay, and for biological activity with a cell-cell fusion (CCF) assay.
Association between the C-peptide and receptor leads to fluorescence quenching, which is reversed in the presence of an inhibitor. […] The assay is quantitative and provides the binding constant (KI) of the inhibitor.
Toxicity of the compounds to TZM-bl cells was also tested to ensure that the luminescence decrease was not simply due to cell death (CC50, toxicity).

The compound `O=C(O)c1cccc(Cc2ccc3cc[nH]c3c2)c1` [Compound I-1, 3-((1H-indol-6-yl)methyl)benzoic acid] yielded a CC50 at 24 h in [1] greater than 500 µM. Also, the “TI (TC50/IC50)” value is greater than 6.45 in data set [2] (2% Serum), greater than 2.87 in [2] (5% Serum) and greater than 2.24 in [2] (10% Serum). Also, the half-maximal inhibitory concentration (IC50) in [3] (2% Serum) was 15.5 µM; in [3] (5% Serum), 34.8 µM; in [3] (10% Serum) it was 44.7 µM; in the data set on HIV-1 Ba-L, 44.7 µM; in the data set with HIV-1 IIIB it was 99.9 µM. Moreover, the IC90 was 58 µM in data set [3] (2% Serum), 89.4 µM in data set [3] (5% Serum) and greater than 100 µM in data set [3] (10% Serum). Also, the CC50 in “in vitro” and with MAGI cells was greater than 100 µM each time.

In the case of `COc1ccc(Cn2ccc3ccc(Cc4cccc(C(=O)O)c4)cc32)cc1` [Compound I-2, 3-((1-(4-methoxybenzyl)-1H-indol-6-yl)methyl)benzoic acid], in the data set with TZM-bl cells, the CC50 is 100 µM.

The compound `O=C(O)C(=O)c1c[nH]c2cc(Cc3cccc(C(=O)O)c3)ccc12` [Compound I-3, 3-((3-(carboxycarbonyl)-1H-indol-6-yl)methyl)benzoic acid] returned a CC50 at 24 h in data set [1] greater than 100 µM.

For `O=C(O)c1cccc(Cc2ccc3ccn(Cc4cccc(C(=O)O)c4)c3c2)c1` [Compound I-4, 3-((1-(3-(carboxy)benzyl)-1H-indol-6-yl)methyl)benzoic acid], the CC50 at 24 h in data set [1] was greater than 200 µM.

With `O=C(O)c1cccc(Cc2ccc3ccn(Cn4ccc5ccc(Cc6cccc(C(=O)O)c6)cc54)c3c2)c1` [Compound I-5, 3,3′-(1,1′-methylenebis(1H-indole-6,1-diyl))bis(methylene)dibenzoic acid], the CC50 at 24 h in data set [1] was greater than 100 µM. Besides, the IC50 in the data set with HIV-1 HXB2 was 17 µM; in data set [3] (2% Serum), 14.6 µM; in [3] (5% Serum), 49.6 µM; in [3] (10% Serum), 92.1 µM; with HIV-1 Ba-L, 92.1 µM; in the data set on HIV-1 IIIB it was no less than 100 µM. In addition, the results for the “TI (TC50/IC50)” value in data set [2] (2% Serum), in data set [2] (5% Serum) and in [2] (10% Serum) were greater than 6.85, greater than 2.02 and greater than 1.09, respectively. Moreover, the IC90 was 71.2 µM in data set [3] (2% Serum), 93.6 µM in data set [3] (5% Serum) and greater than 100 µM in [3] (10% Serum). The CC50 in the data set “in vitro” and in the data set on MAGI cells was greater than 100 µM throughout.

The compound `O=C(O)c1cccc(Cc2ccc3ccn(-c4cccc(C(=O)O)c4)c3c2)c1` [Compound I-6, 3-(6-(3-carboxybenzyl)-1H-indol-1-yl)benzoic acid] came in with a CC50 in the data set with TZM-bl cells greater than 400 µM. In data set [4], the Ki stood at 45 ± 5 µM.

The compound `COc1cccc(-n2ccc3ccc(Cc4cccc(C(=O)O)c4)cc32)c1` [Compound I-7, 3-((1-(3-methoxyphenyl)-1H-indol-6-yl)methyl)benzoic acid] yielded a CC50 at 24 h in data set [1] greater than 100 µM. Also, the “TI (TC50/IC50)” value in data set [2] (2% Serum) was greater than 6.33; in data set [2] (5% Serum), greater than 2.94; in [2] (10% Serum) it was greater than 1.48. The 50% inhibitory concentration (IC50) was found to be 15.8 µM in data set [3] (2% Serum); 34 µM in [3] (5% Serum); 67.7 µM in [3] (10% Serum); 67.7 µM in the data set on HIV-1 Ba-L; 61.5 µM with HIV-1 IIIB. Also, the IC90 in data set [3] (2% Serum), in [3] (5% Serum) and in [3] (10% Serum) was greater than 100 µM throughout. The CC50 in “in vitro” and with MAGI cells was greater than 100 µM in each case.

As for `O=Cc1c[nH]c2cc(Cc3cccc(C(=O)O)c3)ccc12` [Compound I-8, 3-((3-formyl-1H-indol-6-yl)methyl)benzoic acid], the CC50 at 24 h in [1] was greater than 100 µM.

With `O=C(O)c1cccc(Cc2ccc3[nH]ccc3c2)c1` [Compound I-9, 3-((1H-indol-5-yl)methyl)benzoic acid], in [1], the CC50 at 24 h is greater than 400 µM.

`O=C(O)c1cccc(Cc2ccc3c(ccn3Cc3cccc(C(=O)O)c3)c2)c1` [Compound I-10, 3-((1-(3-carboxybenzyl)-1H-indol-5-yl)methyl)benzoic acid] returned a CC50 in the data set with TZM-bl cells greater than 400 µM.

As to `COc1cccc(-c2ccc3ccn(Cc4cccc(C(=O)O)c4)c3c2)c1` [Compound I-11, 3-((6-(3-methoxyphenyl)-1H-indol-1-yl)methyl)benzoic acid], the CC50 at 24 h in [1] was greater than 100 µM. Moreover, the figures for the “TI (TC50/IC50)” value in [2] (2% Serum), in data set [2] (5% Serum) and in data set [2] (10% Serum) were 3.75, greater than 2.73 and greater than 2.11, respectively. Also, the IC50 came to 18 µM in data set [3] (2% Serum); 36.6 µM in [3] (5% Serum); 47.4 µM in [3] (10% Serum); 47.4 µM with HIV-1 Ba-L; 57.4 µM with HIV-1 IIIB. In addition, the IC90 in [3] (2% Serum), in data set [3] (5% Serum) and in [3] (10% Serum) was greater than 100 µM each time. In “in vitro”, this compound yielded a CC50 greater than 100 µM.

Compound `O=C(O)c1cccc(-c2ccc3cc[nH]c3c2)c1` [Compound I-12, 3-(1H-indol-6-yl)benzoic acid] came in with a CC50 at 24 h in data set [1] greater than 100 µM.

For the compound `O=C(O)c1cccc(Cn2ccc3cc(-c4cccc(C(=O)O)c4)ccc32)c1` [Compound I-13, 3-(1-(3-carboxybenzyl)-1H-indol-5-yl)benzoic acid], the CC50 in the data set on TZM-bl cells is greater than 400 µM.

For `O=C(O)c1cccc(Cn2ccc3ccc(-c4cccc(O)c4)cc32)c1` [Compound I-14, 3-((6-(3-hydroxyphenyl)-1H-indol-1-yl)methyl)benzoic acid], the CC50 at 24 h in data set [1] is greater than 100 µM.

On to `O=[N+]([O-])c1cccc(Cc2ccc3cc[nH]c3c2)c1` [Compound I-15, 6-(3-nitrobenzyl)-1H-indole], for which the CC50 at 24 h in [1] is roughly 63 µM.

On to `O=C(O)c1ccc([N+](=O)[O-])c(Cc2ccc3cc[nH]c3c2)c1` [Compound I-16, 3-((1H-indol-6-yl)methyl)-4-nitrobenzoic acid], for which the CC50 at 24 h in data set [1] was greater than 100 µM.

For the compound `COc1ccc(C(=O)O)cc1Cc1ccc2cc[nH]c2c1` [Compound I-17, 3-((1H-indol-6-yl)methyl)-4-methoxybenzoic acid], the CC50 at 24 h in data set [1] is greater than 100 µM.

In turn, `O=C(O)c1cc(O)cc(Cc2ccc3cc[nH]c3c2)c1` [Compound I-18, 3-((1H-indol-6-yl)methyl)-5-hydroxybenzoic acid] displayed a CC50 at 24 h in data set [1] greater than 100 µM.

Turning to `O=C(O)c1ccc(O)c(Cc2ccc3cc[nH]c3c2)c1` [Compound I-19, 3-((1H-indol-6-yl)methyl)-4-hydroxybenzoic acid], the CC50 at 24 h in data set [1] was greater than 100 µM.

In [1], `COc1cc(Cc2ccc3cc[nH]c3c2)cc(C(=O)O)c1` [Compound I-20, 3-((1H-indol-6-yl)methyl)-5-methoxybenzoic acid] gave a CC50 at 24 h greater than 100 µM.

Compound `O=C(O)c1cccc(COc2cccc(-c3ccc4ccn(Cc5cccc(C(=O)O)c5)c4c3)c2)c1` [Compound I-21, 3-((3-(1-(3-carboxybenzyl)-1H-indol-6-yl)phenoxy)methyl)benzoic acid] registered a CC50 at 24 h in [1] greater than 100 µM.

Regarding `COc1ccc(COc2cccc(-c3ccc4ccn(Cc5cccc(C(=O)OCc6cccc(C(=O)O)c6)c5)c4c3)c2)cc1` [Compound I-22, 3-((3-((6-(3-(4-methoxybenzyloxy)phenyl)-1H-indol-1-yl)methyl)benzoyloxy)methyl)benzoic acid], the CC50 at 24 h in [1] is greater than 100 µM. Also, the “TI (TC50/IC50)” value in [2] (2% Serum) was 4.27; in data set [2] (5% Serum), greater than 5.35; in data set [2] (10% Serum), greater than 4.42. Also, the figures for the IC50 in data set [3] (2% Serum), in [3] (5% Serum) and in [3] (10% Serum) were 13.8 µM, 18.7 µM and 22.6 µM, respectively. Further, the IC90 in [3] (2% Serum) was found to be 31.1 µM; in data set [3] (5% Serum), 76.4 µM; in data set [3] (10% Serum) it was 91.7 µM. The compound also yielded a CC50 in the data set “in vitro” greater than 100 µM.

`O=C(O)c1cccc(Cn2ccc3ccc(-c4ccc5cc(Cl)ccc5n4)cc32)c1` [II-1, 3-((6-(6-chloroquinolin-2-yl)-1H-indol-1-yl)methyl)benzoic acid] came in with a CC50 at 24 h in [1] of 93 µM.

In turn, `O=C(O)c1cccc(Cn2ccc3cc(-c4ccc5cc(Cl)ccc5n4)ccc32)c1` [II-2, 3-((5-(6-chloroquinolin-2-yl)-1H-indol-1-yl)methyl)benzoic acid] showed a CC50 at 24 h in data set [1] of 156 µM.

Compound `COc1ccc(Cn2ccc3ccc(-c4ccc5ccn(Cc6cccc(C(=O)O)c6)c5c4)cc32)cc1` [II-3, 3-((1′-(4-methoxybenzyl)-1H,1′H-6,6′-biindol-1-yl)methyl)benzoic acid] gave a CC50 at 24 h in [1] of 18.9 ± 2.9 µM.
